The supplement of paper PMC11208160

Assay: recombinant UMI read abundance after kanamycin selection (control-corrected) (log10(CPM+1)); higher = more efficient recombination; extreme values may be limits of the assay; sequences stand for … in AGTGCAGAGAAAATCGGCCAGTTTTCTCTGCCTGCAGTCCGCATGCCGTGGGACCCCTTGGGTTCTAACCTGTTGCCTAGATTTATGCAGCGGACTGCCTTTCTCCCAAAGTGATAAACCGG…AGGTTGGTTTCACT; site = the 11-nt donor
Summary of the method: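 Values, expressed as log10(CPM+1), derive from recombinant UMI counts converted to CPM, averaged across replicates and scaled by control-derived factors. Plating was with IPTG (0.07 mM) plus kanamycin or unselected, two replicates each. The screen pooled donor and donor-binding-loop pairs for the IS621 bridge recombinase in Escherichia coli.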
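Further: IS621 bridge recombinase in Escherichia coli cells against a fixed T5 target plasmid.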

Row | Sequence | recombinant UMI read abundance (log10)
1 | CGGAATCCATGGACCGGTTTTCCCGGTAATCCGTATTTGTT (site CGGAGGCCTAA) | 0.012
2 | CGGAATCCATGGACCGGTTTTCCCGGTAATCCGTATTTGTT (site CGGAGTACTAA) | 0.00934
3 | CGGAATCCATGGACCGGTTTTCCCGGTAATCCGTATTTGTT (site CGGAGTCCTAA) | 0.00217
4 | CGGAATCCATGGACCGGTTTTCCCGGTAATCCGTATTTGTT (site CGGAGTCCTAT) | 0
5 | CGGAATCCATGGACCGGTTTTCCCGGTAATCCGTATTTGTT (site CGGAGTCCTGA) | 0
6 | CGGAATCCATGGACCGGTTTTCCCGGTAATCCGTATTTGTT (site CGGATACCTAA) | 0.0155
7 | CGGAATCCATGGACCGGTTTTCCCGGTAATCCGTATTTGTT (site CGGATTCCTAA) | 0.0126
8 | CGGAATCCATGGACCGGTTTTCCCGGTAATCCGTATTTGTT (site CGGATTCCTAG) | 0
9 | CGGAATCCATGGACCGGTTTTCCCGGTAATCCGTATTTGTT (site CGGATTCCTTA) | 0
10 | CGGAATCCATGGACCGGTTTTCCCGGTAATCCGTATTTGTT (site CGGATTTCTAA) | 0
11 | CGGAATCCATGGACCGGTTTTCCCGGTAATCCGTATTTGTT (site CGGCACCCTAA) | 0.0425
12 | CGGAATCCATGGACCGGTTTTCCCGGTAATCCGTATTTGTT (site CGGCATCCTAA) | 0.0145
13 | CGGAATCCATGGACCGGTTTTCCCGGTAATCCGTATTTGTT (site CGGCATCCTAC) | 0.011
14 | CGGAATCCATGGACCGGTTTTCCCGGTAATCCGTATTTGTT (site CGGCATCCTCA) | 0.00889
15 | CGGAATCCATGGACCGGTTTTCCCGGTAATCCGTATTTGTT (site CGGCATGCTAA) | 0.0214
16 | CGGAATCCATGGACCGGTTTTCCCGGTAATCCGTATTTGTT (site CGGCCTCCTAA) | 0
17 | CGGAATCCATGGACCGGTTTTCCCGGTAATCCGTATTTGTT (site CGGGAACCTAA) | 0.00313
18 | CGGAATCCATGGACCGGTTTTCCCGGTAATCCGTATTTGTT (site CGGGATCCTAA) | 0.0888
19 | CGGAATCCATGGACCGGTTTTCCCGGTAATCCGTATTTGTT (site CGGGATCCTAG) | 0
20 | CGGAATCCATGGACCGGTTTTCCCGGTAATCCGTATTTGTT (site CGGGATCCTTA) | 0.00923
21 | CGGAATCCATGGACCGGTTTTCCCGGTAATCCGTATTTGTT (site CGGGATTCTAA) | 0
22 | CGGAATCCATGGACCGGTTTTCCCGGTAATCCGTATTTGTT (site CGGGTTCCTAA) | 0.0107
23 | CGGAATCCATGGACCGGTTTTCCCGGTAATCCGTATTTGTT (site CGGTAGCCTAA) | 0.0806
24 | CGGAATCCATGGACCGGTTTTCCCGGTAATCCGTATTTGTT (site CGGTATACTAA) | 0.0163
25 | CGGAATCCATGGACCGGTTTTCCCGGTAATCCGTATTTGTT (site CGGTATCCTAA) | 0.107

Row | Sequence | recombinant UMI read abundance (log10)
26 | CGGAATCCATGGACCGGTTTTCCCGGTAATCCGTATTTGTT (site CGGTATCCTAT) | 0
27 | CGGAATCCATGGACCGGTTTTCCCGGTAATCCGTATTTGTT (site CGGTATCCTGA) | 0
28 | CGGAATCCATGGACCGGTTTTCCCGGTAATCCGTATTTGTT (site CGGTGTCCTAA) | 0.0136
29 | CGGAATCCATGGACCGGTTTTCCCGGTAATCCGTATTTGTT (site CGTAAGCCTAA) | 0.0106
30 | CGGAATCCATGGACCGGTTTTCCCGGTAATCCGTATTTGTT (site CGTAATACTAA) | 0.00407
31 | CGGAATCCATGGACCGGTTTTCCCGGTAATCCGTATTTGTT (site CGTAATCCTAA) | 0.0103
32 | CGGAATCCATGGACCGGTTTTCCCGGTAATCCGTATTTGTT (site CGTAATCCTAT) | 0
33 | CGGAATCCATGGACCGGTTTTCCCGGTAATCCGTATTTGTT (site CGTAATCCTGA) | 0
34 | CGGAATCCATGGACCGGTTTTCCCGGTAATCCGTATTTGTT (site CGTAGTCCTAA) | 0.00941
35 | CGGAATCCATGGACCGGTTTTCCCGGTAATCCGTATTTGTT (site CGTTATCCTAA) | 0.00294
36 | CGGAATCCATGGACCGGTTTTCCCGGTAATCCGTATTTGTT (site CTCAATCCTAA) | 0
37 | CGGAATCCATGGACCGGTTTTCCCGGTAATCCGTATTTGTT (site CTGAACCCTAA) | 0.0207
38 | CGGAATCCATGGACCGGTTTTCCCGGTAATCCGTATTTGTT (site CTGAATCCTAA) | 0.0031
39 | CGGAATCCATGGACCGGTTTTCCCGGTAATCCGTATTTGTT (site CTGAATCCTAC) | 0
40 | CGGAATCCATGGACCGGTTTTCCCGGTAATCCGTATTTGTT (site CTGAATCCTCA) | 0.0195
41 | CGGAATCCATGGACCGGTTTTCCCGGTAATCCGTATTTGTT (site CTGAATGCTAA) | 0.00589
42 | CGGAATCCATGGACCGGTTTTCCCGGTAATCCGTATTTGTT (site CTGACTCCTAA) | 0.00378
43 | CGGAATCCATGGACCGGTTTTCCCGGTAATCCGTATTTGTT (site CTGCATCCTAA) | 0.0146
44 | CGGAATCCATGGACCGGTTTTCCCGGTAATCCGTATTTGTT (site GAGAATCCTAA) | 0.00637
45 | CGGAATCCATGGACCGGTTTTCCCGGTAATCCGTATTTGTT (site GGGAAGCCTAA) | 0.0234
46 | CGGAATCCATGGACCGGTTTTCCCGGTAATCCGTATTTGTT (site GGGAATACTAA) | 0
47 | CGGAATCCATGGACCGGTTTTCCCGGTAATCCGTATTTGTT (site GGGAATCCTAA) | 0
48 | CGGAATCCATGGACCGGTTTTCCCGGTAATCCGTATTTGTT (site GGGAATCCTAT) | 0
49 | CGGAATCCATGGACCGGTTTTCCCGGTAATCCGTATTTGTT (site GGGAATCCTGA) | 0
50 | CGGAATCCATGGACCGGTTTTCCCGGTAATCCGTATTTGTT (site GGGAGTCCTAA) | 0.00491

Row | Sequence | recombinant UMI read abundance (log10)
51 | CGGAATCCATGGACCGGTTTTCCCGGTAATCCGTATTTGTT (site GGGTATCCTAA) | 0
52 | CGGAATCCATGGACCGGTTTTCCCGGTAATCCGTATTTGTT (site GGTAATCCTAA) | 0
53 | CGGAATCCATGGACCGGTTTTCCCGGTAATCCGTATTTGTT (site TGCAATCCTAA) | 0.0105
54 | CGGAATCCATGGACCGGTTTTCCCGGTAATCCGTATTTGTT (site TGGAACCCTAA) | 0.0136
55 | CGGAATCCATGGACCGGTTTTCCCGGTAATCCGTATTTGTT (site TGGAATCCTAA) | 0
56 | CGGAATCCATGGACCGGTTTTCCCGGTAATCCGTATTTGTT (site TGGAATCCTAC) | 0
57 | CGGAATCCATGGACCGGTTTTCCCGGTAATCCGTATTTGTT (site TGGAATCCTCA) | 0.00675
58 | CGGAATCCATGGACCGGTTTTCCCGGTAATCCGTATTTGTT (site TGGAATGCTAA) | 0.00525
59 | CGGAATCCATGGACCGGTTTTCCCGGTAATCCGTATTTGTT (site TGGACTCCTAA) | 0.027
60 | CGGAATCCATGGACCGGTTTTCCCGGTAATCCGTATTTGTT (site TGGCATCCTAA) | 0.00352
61 | CGGAATCCATGGACCGGTTTTCCCGGTAATCCGTATTTGTT (site TTGAATCCTAA) | 0.00378
62 | CGGAATGCATGGACCGGTTTTCCCGGTAATCCGTATTTGCA (site CGGAATGCTTG) | 2.28
63 | CGGAATGCATGGACCGGTTTTCCCGGTAATCCGTATTTGTG (site CGGAATCCTAA) | 0
64 | CGGAATGCATGGACCGGTTTTCCCGGTAATCCGTATTTGTG (site CGGAATGCTCA) | 2.58
65 | CGGACTCCATGGACCGGTTTTCCCGGTAATCCGTATTTGTT (site CGGAATCCTAA) | 0.00938
66 | CGGACTCCATGGACCGGTTTTCCCGGTAATCCGTATTTGTT (site CGGACTCCTAA) | 1.58
67 | CGGACTCCATGGACCGGTTTTCCCGGTAATCCGTATTTGTT (site CGGAGTCCTAA) | 0.00177
68 | CGGACTCCATGGACCGGTTTTCCCGGTAATCCGTATTTGTT (site CGGATTCCTAA) | 0.00394
69 | CGGAGATCATGGACCGGTTTTCCCGGTAATCCGTATTTGGT (site CGGAGATCTAC) | 2.19
70 | CGGAGCACATGGACCGGTTTTCCCGGTAATCCGTATTTGAA (site CGGAGCACTTT) | 1.77
71 | CGGAGTCCATGGACCGGTTTTCCCGGTAATCCGTATTTGTT (site CGGAATCCTAA) | 0.767
72 | CGGAGTCCATGGACCGGTTTTCCCGGTAATCCGTATTTGTT (site CGGACTCCTAA) | 0.011
73 | CGGAGTCCATGGACCGGTTTTCCCGGTAATCCGTATTTGTT (site CGGAGTCCTAA) | 0.684
74 | CGGAGTCCATGGACCGGTTTTCCCGGTAATCCGTATTTGTT (site CGGATTCCTAA) | 0
75 | CGGATACCATGGACCGGTTTTCCCGGTAATCCGTATTTGTT (site CGGAATCCTAA) | 0.00671
